# In publication PMC10791743, “Selective CK1α degraders exert antiproliferative activity against a broad range of human cancer cell lines” (Nature Communications, 2024):
# Columns and labels:
# [1] = tested on: β-catenin; test: HiBiT-β-catenin stabilization, live-cell kinetic (HEK293 cells); type: cell-based
# Procedure: Next, TMT-proteomics studies were performed to determine broader degradation selectivity profiles of our two lead compounds. […] As expected, increased protein levels of p53, p21, and β-catenin were detected in the treated cells. To investigate the relationship between β-catenin stabilization relative to CK1α degradation, kinetic monitoring of endogenously tagged HiBiT-β-catenin was performed in live cells and compared to our measurements of CK1α degradation kinetics. Treatment of cells with the lead compounds from each series led to dose-dependent stabilization of β-catenin levels with slower kinetics compared to the observed rapid degradation of CK1α. […]
# White 96-well assay plates (Corning, Cat. # 3017) were seeded with 30,000 cells/well in growth media for CK1α-HiBiT HEK293 LgBiT stable and HiBiT-β-catenin HEK293 LgBiT stable and incubated overnight at 37 °C and 5% CO2. […] Luminescence was allowed to equilibrate for all plates for 2.5 h. […] Luminescence was read every 5 min for 24 h. At the end of all 24-h cycles, CellTiter Glo 2.0 (Promega, Cat. #G9242) was added to the plates, incubated for at least 10 min and luminescence was read using the GloMax Discover.
# Relative protein level was determined based on normalization to the DMSO control and reported at Fractional RLUs. […]
# [2] = target: T1, CK1α G40N (Homo sapiens, UniProt P48729, G40N); test: Immunoblot of transduced MOLM-13 cells (FLAG-CK1α WT / G40N); type: cell-based; settings: 1 μM, 4 h
# T1 construct: host or cells: MOLM-13, lentiviral transduction, puromycin selected
# T1 sequence (Q96SW2 whole entry partner): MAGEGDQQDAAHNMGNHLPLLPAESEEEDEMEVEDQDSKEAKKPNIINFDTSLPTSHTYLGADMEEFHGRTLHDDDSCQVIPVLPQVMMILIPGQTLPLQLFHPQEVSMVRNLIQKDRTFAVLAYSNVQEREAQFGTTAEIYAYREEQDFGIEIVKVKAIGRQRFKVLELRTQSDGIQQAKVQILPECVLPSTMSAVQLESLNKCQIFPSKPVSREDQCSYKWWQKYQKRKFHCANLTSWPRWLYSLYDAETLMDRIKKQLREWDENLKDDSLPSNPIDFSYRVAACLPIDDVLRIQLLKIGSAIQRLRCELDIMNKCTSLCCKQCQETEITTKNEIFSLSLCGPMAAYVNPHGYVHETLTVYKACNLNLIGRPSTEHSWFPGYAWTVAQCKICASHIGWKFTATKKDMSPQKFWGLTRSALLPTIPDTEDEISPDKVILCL
# T1 sequence (Q16531 whole entry partner): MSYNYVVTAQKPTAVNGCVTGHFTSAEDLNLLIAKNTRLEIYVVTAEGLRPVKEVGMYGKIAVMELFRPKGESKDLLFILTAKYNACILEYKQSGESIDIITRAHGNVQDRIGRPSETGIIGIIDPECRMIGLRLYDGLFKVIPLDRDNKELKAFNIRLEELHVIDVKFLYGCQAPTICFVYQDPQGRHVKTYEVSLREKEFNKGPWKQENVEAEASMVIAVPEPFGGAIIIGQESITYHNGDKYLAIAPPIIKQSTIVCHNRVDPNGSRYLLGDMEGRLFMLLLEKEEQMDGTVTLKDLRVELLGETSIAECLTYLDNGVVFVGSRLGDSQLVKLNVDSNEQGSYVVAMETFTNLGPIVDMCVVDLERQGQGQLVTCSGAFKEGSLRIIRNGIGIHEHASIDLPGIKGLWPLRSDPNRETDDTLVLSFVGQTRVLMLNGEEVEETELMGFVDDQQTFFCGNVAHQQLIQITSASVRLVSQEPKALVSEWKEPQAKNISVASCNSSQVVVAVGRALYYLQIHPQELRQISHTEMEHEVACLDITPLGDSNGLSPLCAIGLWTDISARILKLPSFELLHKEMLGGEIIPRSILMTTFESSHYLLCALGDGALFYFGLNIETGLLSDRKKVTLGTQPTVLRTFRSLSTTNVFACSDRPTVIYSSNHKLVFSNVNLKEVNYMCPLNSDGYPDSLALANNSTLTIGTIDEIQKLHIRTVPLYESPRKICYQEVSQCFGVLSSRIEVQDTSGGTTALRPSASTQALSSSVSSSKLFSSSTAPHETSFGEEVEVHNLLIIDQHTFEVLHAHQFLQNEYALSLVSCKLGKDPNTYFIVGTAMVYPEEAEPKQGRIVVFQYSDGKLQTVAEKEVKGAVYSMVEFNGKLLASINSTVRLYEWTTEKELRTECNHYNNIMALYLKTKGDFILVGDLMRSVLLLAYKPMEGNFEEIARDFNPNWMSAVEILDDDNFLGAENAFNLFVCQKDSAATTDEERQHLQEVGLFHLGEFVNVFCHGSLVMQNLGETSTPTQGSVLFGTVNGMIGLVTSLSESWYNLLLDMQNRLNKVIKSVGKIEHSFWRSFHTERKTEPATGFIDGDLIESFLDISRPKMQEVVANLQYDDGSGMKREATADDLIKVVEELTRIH
# T1 sequence (P48729 whole entry G40N): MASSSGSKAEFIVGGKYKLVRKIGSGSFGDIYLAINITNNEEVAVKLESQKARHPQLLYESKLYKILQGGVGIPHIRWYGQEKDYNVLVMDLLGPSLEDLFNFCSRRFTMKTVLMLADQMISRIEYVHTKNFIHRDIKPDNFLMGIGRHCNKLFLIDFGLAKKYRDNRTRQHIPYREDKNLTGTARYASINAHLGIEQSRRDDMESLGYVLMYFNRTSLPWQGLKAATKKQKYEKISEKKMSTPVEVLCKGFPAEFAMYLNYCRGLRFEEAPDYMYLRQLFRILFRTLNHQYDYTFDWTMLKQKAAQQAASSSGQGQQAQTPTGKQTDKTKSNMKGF
# Procedure: To evaluate the contribution of the CK1α degradation in SJ3149-mediated cytotoxicity, we utilized the degradation-resistant mutant CK1α G40N[41]. MOLM-13 cells were transduced with lentivirus to overexpress FLAG-tagged wild type CK1α or the G40N mutant, which removes the essential glycine in the CK1α degron G-loop.
# Frozen pellets of ~1 million cells were lysed in 150 µl of SDS lysis buffer (60 mM Tris/HCl pH 7, 10% glycerol, 2% SDS, 5% beta-mercaptoethanol, 0.02% bromophenol blue, 0.5% protease and phosphatase inhibitor cocktail (Sigma Aldrich)). When cells were resuspended, samples were heated for 3 min at 99 °C then put on ice. Samples were then fragmented by sonication for 10 0.5-s pulses (550 Sonic Dismembrator, Fisher Scientific) and heated again at 99 °C for 2 min. 15 μl of each sample was added to the wells of a 4–20% polyacrylamide gel (Bio-Rad). A mixture of 2 μl of Precision Plus Protein Unstained Standards and 2 μl of Precision Plus Protein All Blue Standards (Bio-Rad) was used for the size marker. After electrophoresis, gels were transferred to nitrocellulose membrane using the Bio-Rad Trans-Blot Turbo system on the mixed molecular weight setting. […] Blots were imaged with the Li-Cor Odyssey CLx and analyzed using Image Studio Version 5.2. […]
compound,measurement,setting,value
O=C1CCC(N2Cc3cc(Nc4noc5ccccc45)ccc3C2=O)C(=O)N1 (centres unmarked) [SJ3149],Time to detectable increase of β-catenin,[1],≤ 30 min
same,Degradation of G40N mutant CK1α protein,[2],resistance of the G40N mutant protein to SJ3149 mediated degradation
